Measurements reported in patent publication US20240165227A1, “ANTICANCER THERAPIES USING ANTI-CCR8 ANTIBODY, CHEMO AND IMMUNOTHERAPY COMBINATIONS” (Gilead Sciences, Inc., priority 2022, published 2024).

Legend:
[1] = tested on: LLC (lung cancer); assay: LLC syngeneic mouse lung model, first study, tumor growth; format: in vivo; conditions: single dose low dose docetaxel 5 mg/kg and/or anti-CCR8 antibody Q3D 1 mg/kg, FIG. 6
Procedure: (§1) The ability of an anti-CCR8 antibody to augment tumor-specific effector T cell responses when paired with low-dose chemotherapy with or without an anti-PD-1 mAb was tested in vivo in different mouse syngeneic models, including 4T1 (breast cancer), Pan02 (pancreatic cancer), B16F10 (melanoma), LLC (lung cancer). 4T1 and Pan02 models are commonly understood to represent solid tumor models with strong immunosuppressive components. B16F10 and LLC are commonly viewed as cold tumor models.
(§2) The anti-CCR8 antibody used for the studies described herein is a mouse IgG2a isotype, and as described, e.g., by Campbell, J. R., et al. (2021). “Fc-Optimized Anti-CCR8 Antibody Depletes Regulatory T Cells in Human Tumor Models.” Cancer Res 81(11): 2983-2994. Isotype Control is a mouse IgG2a (BioXcell). Anti-PD-1 antibody is a mouse IgG1 antibody with D265A mutation.
(§3) A first study using the LLC model tested the relative antitumor activities of anti-CCR8 antibody and docetaxel administrations as single agents and in combination. Following inoculation, mice were randomized and grouped (n=8 animals per group) when tumors reached 80-120 mm^3 and administered a single dose of low dose docetaxel at 5 mg/kg (approximately 50% of most efficacious dose) and/or anti-CCR8 antibody Q3D at 1 mg/kg. A control group received an isotype control antibody.

[2] = tested on: LLC (lung cancer); assay: LLC syngeneic mouse lung model, second study (single, dual, triple combinations), tumor growth; format: in vivo; conditions: docetaxel 5 mg/kg, anti-CCR8 antibody Q3D 1 mg/kg, anti-PD-1 antibody Q3D 10 mg/kg, FIG. 7, FIG. 8
Procedure: as §1, §2
A second study using the LLC model tested the relative antitumor activities of anti-CCR8 antibody, anti-PD-1 antibody, and low dose docetaxel as single agents, dual combinations, and a triple combination. Following inoculation, mice were randomized and grouped (n=10 animals per group) when tumors reached 80-120 mm^3 and administered a single dose of docetaxel at 5 mg/kg, and/or anti-CCR8 antibody Q3D at 1 mg/kg, and/or anti-PD-1 antibody Q3D at 10 mg/kg. A control group received an isotype control antibody. […]

[3] = tested on: B16F10 (melanoma); assay: B16F10 syngeneic mouse melanoma model, first study, tumor growth; format: in vivo; conditions: single dose low dose gemcitabine 15 mg/kg and/or anti-CCR8 antibody Q3D 1 mg/kg, FIG. 3
Procedure: as §1, §2
as §3, with “the B16F10” for “the LLC”, “and gemcitabine” for “and docetaxel”, “grouped (n=10” for “grouped (n=8”, “dose gemcitabine” for “dose docetaxel”, “at 15” for “at 5”, “antibody. […] Tumors were collected at Day 5 post-dose. […]” for “antibody.”

[4] = tested on: tumor infiltrating lymphocytes from B16F10 tumors; assay: B16F10 model, flow cytometry of tumor infiltrating lymphocytes (Treg and CD8 frequency); format: in vivo, mouse; conditions: B16F10 tumors collected at Day 5 post-dose, FIG. 4B
Text: FIG. 4A and FIG. 4B show bar charts illustrating tumor infiltrating lymphocytes from a syngeneic mouse melanoma model (B16F10). Mice were each administered with a single dose of a control antibody, gemcitabine (“low dose SOC chemo”) and/or an anti-CCR8 antibody, and frequencies of regulatory T-cells (Tregs; […]) or effector T-cells ([…]) were quantified. T test results are shown, wherein **** is p<0.0001, *** p<0.001, ** is p<0.01 and * is p<0.1.
A first study using the B16F10 model tested the relative antitumor activities of anti-CCR8 antibody and gemcitabine administrations as single agents and in combination. Following inoculation, mice were randomized and grouped (n=10 animals per group) when tumors reached 80-120 mm^3 and administered a single dose of low dose gemcitabine at 15 mg/kg (approximately 50% of most efficacious dose) and/or anti-CCR8 antibody Q3D at 1 mg/kg. A control group received an isotype control antibody. […] Tumors were collected at Day 5 post-dose. […] Briefly, tumors were dissociated and prepared for flow cytometry staining. Cells were stained as follows: L/D, CD45, CD3, CD4, CD8, CD25, FoxP3. Samples were acquired on flow cytometer and data generated was used to determine Treg frequency (L/D negative, CD45 positive, CD3 positive, CD4 positive, CD25 positive, FoxP3 positive) and CD8 frequency (L/D negative, CD45 positive, CD3 positive, CD8 positive).

## CC(=O)O[C@@]12CO[C@@H]1C[C@H](O)[C@@]1(C)C(=O)[C@H](O)C3=C(C)[C@@H](OC(=O)[C@H](O)[C@@H](NC(=O)OC(C)(C)C)c4ccccc4)C[C@@](O)([C@@H](OC(=O)c4ccccc4)[C@H]21)C3(C)C [docetaxel]
[1]
  tumor growth inhibition: did not result in substantial tumor growth inhibition
[2]
  tumor growth inhibition: Partial tumor growth inhibition

## Nc1ccn([C@@H]2O[C@H](CO)[C@@H](O)C2(F)F)c(=O)n1 [gemcitabine]
[3]
  tumor growth inhibition: did not result in substantial tumor growth inhibition
[4]
  CD8+ T-cell infiltration in the tumors (CD8 frequency): significant CD8+ T-cell infiltration
